Measurements reported in ChEMBL document CHEMBL5724914, “Linking interpersonal differences in gut microbiota composition and drug biotransformation activity” (2024).

Assays:
[1] = (§1) The drug is tested on Z-027 corresponding to metagenome with ENA study accession number: PRJEB37062 and ENA sample accession number: ERS12561826 for biotransformation under anaerobic condition. The drug concentrations were measured over 9 timepoints collected between 0 and 24 hours of incubation by liquid-chromatography-coupled mass spectrometry (LC–MS); details: 2 µM
[2] = as §1, with “Z-005” for “Z-027”, “ERS12561805” for “ERS12561826”; details: 2 µM
[3] = as §1, with “Z-012” for “Z-027”, “ERS12561812” for “ERS12561826”; details: 2 µM
[4] = (§2) The drug is tested on WLS-077 corresponding to human gut metagenome with ENA study accession number: PRJEB37062 and ENA sample accession number: ERS12561750 for biotransformation under anaerobic condition. The drug concentrations were measured over 9 timepoints collected between 0 and 24 hours of incubation by liquid-chromatography-coupled mass spectrometry (LC–MS); details: 2 µM
[5] = as §1, with “Z-008” for “Z-027”, “ERS12561808” for “ERS12561826”; details: 2 µM
[6] = human gut metagenome, 24 h, 2 µM
[7] = as §2, with “Z-017” for “WLS-077”, “mouse” for “human”, “ERS12561816” for “ERS12561750”; details: 2 µM
[8] = as §2, with “WLS-038” for “WLS-077”, “ERS12561745” for “ERS12561750”; details: 2 µM
[9] = human gut metagenome, 24 h, 2 µM; remark: listed apart in the source
[10] = as §2, with “WLS-073” for “WLS-077”, “ERS12561749” for “ERS12561750”; details: 2 µM
[11] = human gut metagenome, 24 h, 2 µM; remark: listed apart in the source
[12] = as §2, with “Z-007” for “WLS-077”, “rat” for “human”, “ERS12561807” for “ERS12561750”; details: 2 µM
[13] = as §2, with “Z-030” for “WLS-077”, “mouse” for “human”, “ERS12561829” for “ERS12561750”; details: 2 µM
[14] = as §2, with “WLS-052” for “WLS-077”, “ERS12561747” for “ERS12561750”; details: 2 µM
[15] = human gut metagenome, 24 h, 2 µM; remark: listed apart in the source
[16] = human gut metagenome, 24 h, 2 µM; remark: listed apart in the source
[17] = as §1, with “Z-010” for “Z-027”, “ERS12561810” for “ERS12561826”; details: 2 µM
[18] = human gut metagenome, 24 h, 2 µM; remark: listed apart in the source
[19] = human gut metagenome, 24 h, 2 µM; remark: listed apart in the source
[20] = as §2, with “WLS-350” for “WLS-077”, “ERS12561789” for “ERS12561750”; details: 2 µM
Also: call rule not given here.

Structure (SMILES) | Bacterial Biotransformation [1] | Bacterial Biotransformation [2] | Bacterial Biotransformation [3] | Bacterial Biotransformation [4] | Bacterial Biotransformation [5] | Bacterial Biotransformation [6] | Bacterial Biotransformation [7] | Bacterial Biotransformation [8] | Bacterial Biotransformation [9] | Bacterial Biotransformation [10] | Bacterial Biotransformation [11] | Bacterial Biotransformation [12] | Bacterial Biotransformation [13] | Bacterial Biotransformation [14] | Bacterial Biotransformation [15] | Bacterial Biotransformation [16] | Bacterial Biotransformation [17] | Bacterial Biotransformation [18] | Bacterial Biotransformation [19] | Bacterial Biotransformation [20]
N#Cc1ccc(C(c2ccc(C#N)cc2)n2cncn2)cc1 [LETROZOLE] | Compound NOT metabolized | Compound NOT metabolized | Compound NOT metabolized | Compound NOT metabolized | Compound NOT metabolized | Compound NOT metabolized | Compound NOT metabolized | Compound NOT metabolized | Compound NOT metabolized | Compound NOT metabolized | Compound NOT metabolized | Compound NOT metabolized | Compound NOT metabolized | Compound NOT metabolized | Compound NOT metabolized | Compound NOT metabolized | Compound NOT metabolized | Compound NOT metabolized | Compound NOT metabolized | Compound NOT metabolized
CC(Oc1c(Cl)cccc1Cl)C1=NCCN1 (stereo not given) [LOFEXIDINE] | Compound NOT metabolized | Compound NOT metabolized | Compound NOT metabolized | Compound NOT metabolized | Compound NOT metabolized | Compound metabolized | Compound NOT metabolized | Compound NOT metabolized | Compound metabolized | Compound NOT metabolized | Compound metabolized | Compound NOT metabolized | Compound NOT metabolized | Compound NOT metabolized | Compound NOT metabolized | Compound NOT metabolized | Compound NOT metabolized | Compound NOT metabolized | Compound NOT metabolized | Compound NOT metabolized
CN(C)C(=O)C(CCN1CCC(O)(c2ccc(Cl)cc2)CC1)(c1ccccc1)c1ccccc1 [LOPERAMIDE] | Compound metabolized | Compound metabolized | Compound metabolized | Compound metabolized | Compound NOT metabolized | Compound metabolized | Compound NOT metabolized | Compound metabolized | Compound metabolized | Compound NOT metabolized | Compound metabolized | Compound NOT metabolized | Compound NOT metabolized | Compound metabolized | Compound metabolized | Compound metabolized | Compound metabolized | Compound metabolized | Compound NOT metabolized | Compound metabolized
CCCCc1nc(Cl)c(CO)n1Cc1ccc(-c2ccccc2-c2nn[nH]n2)cc1 [LOSARTAN] | Compound NOT metabolized | Compound NOT metabolized | Compound NOT metabolized | Compound NOT metabolized | Compound NOT metabolized | Compound metabolized | Compound NOT metabolized | Compound NOT metabolized | Compound metabolized | Compound NOT metabolized | Compound metabolized | Compound NOT metabolized | Compound NOT metabolized | Compound NOT metabolized | Compound metabolized | Compound NOT metabolized | Compound NOT metabolized | Compound metabolized | Compound NOT metabolized | Compound metabolized
COC(=O)Nc1nc2ccc(C(=O)c3ccccc3)cc2[nH]1 [MEBENDAZOLE] | Compound NOT metabolized | Compound metabolized | Compound metabolized | Compound metabolized | Compound metabolized | Compound metabolized | Compound NOT metabolized | Compound metabolized | Compound metabolized | Compound metabolized | Compound metabolized | Compound metabolized | Compound NOT metabolized | Compound metabolized | Compound metabolized | Compound metabolized | Compound metabolized | Compound metabolized | Compound NOT metabolized | Compound NOT metabolized
COc1ccccc1OCC(O)COC(N)=O (stereo not given) [METHOCARBAMOL] | Compound NOT metabolized | Compound NOT metabolized | Compound NOT metabolized | Compound NOT metabolized | Compound NOT metabolized | Compound NOT metabolized | Compound NOT metabolized | Compound NOT metabolized | Compound NOT metabolized | Compound NOT metabolized | Compound NOT metabolized | Compound NOT metabolized | Compound NOT metabolized | Compound NOT metabolized | Compound NOT metabolized | Compound NOT metabolized | Compound NOT metabolized | Compound NOT metabolized | Compound NOT metabolized | Compound NOT metabolized
CC[C@@H](CO)NC(=O)[C@@H]1C=C2c3cccc4c3c(cn4C)C[C@H]2N(C)C1.O=C(O)/C=C\C(=O)O [METHYSERGIDE MALEATE] | Compound NOT metabolized | Compound NOT metabolized | Compound NOT metabolized | Compound NOT metabolized | Compound NOT metabolized | Compound metabolized | Compound NOT metabolized | Compound NOT metabolized | Compound metabolized | Compound NOT metabolized | Compound NOT metabolized | Compound NOT metabolized | Compound NOT metabolized | Compound NOT metabolized | Compound metabolized | Compound NOT metabolized | Compound NOT metabolized | Compound metabolized | Compound NOT metabolized | Compound NOT metabolized
CCN(CC)CCNC(=O)c1cc(Cl)c(N)cc1OC [METOCLOPRAMIDE] | Compound NOT metabolized | Compound NOT metabolized | Compound NOT metabolized | Compound NOT metabolized | Compound NOT metabolized | Compound NOT metabolized | Compound NOT metabolized | Compound NOT metabolized | Compound NOT metabolized | Compound NOT metabolized | Compound NOT metabolized | Compound NOT metabolized | Compound NOT metabolized | Compound NOT metabolized | Compound NOT metabolized | Compound NOT metabolized | Compound NOT metabolized | Compound NOT metabolized | Compound NOT metabolized | Compound NOT metabolized
